Assay results from ChEMBL document CHEMBL1221220, “Transport and signaling via the amino acid binding site of the yeast Gap1 amino acid transceptor” (Nat Chem Biol, 2009).
Changes are numbered by the printed parent chain. Calls of active or inactive are those of the source. The rule behind the calls is not given here.

How the values were obtained:
[1] = tested on: T1, General amino-acid permease GAP1 (Saccharomyces cerevisiae), P19145 [R399C]; experiment: Induction of yeast Gap1 R399C mutant-mediated amino acid uptake at 2 mM in presence of 10 mM MTSEA treated before compound addition
T1 sequence (whole entry): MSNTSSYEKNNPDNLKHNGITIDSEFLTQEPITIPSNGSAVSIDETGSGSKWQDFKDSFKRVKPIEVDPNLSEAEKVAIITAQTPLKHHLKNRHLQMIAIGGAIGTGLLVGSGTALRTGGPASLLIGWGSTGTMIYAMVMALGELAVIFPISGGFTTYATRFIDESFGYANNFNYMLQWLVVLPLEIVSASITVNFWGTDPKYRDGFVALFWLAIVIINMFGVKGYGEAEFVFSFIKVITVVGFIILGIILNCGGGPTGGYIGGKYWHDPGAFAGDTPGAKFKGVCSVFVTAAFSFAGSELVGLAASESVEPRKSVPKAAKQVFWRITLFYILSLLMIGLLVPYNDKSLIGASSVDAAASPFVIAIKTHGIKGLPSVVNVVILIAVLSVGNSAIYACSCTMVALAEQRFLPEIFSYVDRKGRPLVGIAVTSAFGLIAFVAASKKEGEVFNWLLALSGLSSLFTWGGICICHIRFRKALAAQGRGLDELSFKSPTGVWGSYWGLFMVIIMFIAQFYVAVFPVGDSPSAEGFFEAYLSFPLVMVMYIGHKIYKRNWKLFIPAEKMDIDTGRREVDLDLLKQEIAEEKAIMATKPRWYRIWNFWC

[2] = tested on: T2, General amino-acid permease GAP1 (Saccharomyces cerevisiae), P19145 [A405C]; experiment: Induction of yeast Gap1 A405C mutant-mediated trehalose activation at 10 mM
T2 sequence (whole entry): T1 sequence (whole entry) with C399R, A405C

[3] = tested on: T1, General amino-acid permease GAP1 (Saccharomyces cerevisiae), P19145 [R399C]; experiment: Induction of yeast Gap1 R399C mutant-mediated trehalose activation at 2 mM in presence of 10 mM MTSEA treated before compound addition
[4] = tested on: T3, General amino-acid permease GAP1 (Saccharomyces cerevisiae), P19145 [M401C]; experiment: Induction of yeast Gap1 M401C mutant-mediated amino acid uptake at 2 mM in presence of 10 mM MTSEA treated before compound addition
T3 sequence (whole entry): T1 sequence (whole entry) with C399R, M401C

[5] = tested on: T2, General amino-acid permease GAP1 (Saccharomyces cerevisiae), P19145 [A405C]; experiment: Induction of yeast Gap1 A405C mutant-mediated […] activation at 2 mM in presence of 10 mM MTSEA treated before compound addition
[6] = target: T4, General amino-acid permease GAP1 (Saccharomyces cerevisiae) (UniProt P19145); experiment: Induction of nitrogen-starved wild type sigma1278b yeast Gap1-mediated trehalase activation at 2 mM in presence of 10 mM MTSEA treated before compound addition
T4 sequence (whole entry): T1 sequence (whole entry) with C399R

[7] = tested on: T3, General amino-acid permease GAP1 (Saccharomyces cerevisiae), P19145 [M401C]; experiment: Induction of yeast Gap1 M401C mutant-mediated trehalose activation at 2 mM in presence of 10 mM MTSEA treated before compound addition

## NC(=O)NCCC[C@H](N)C(=O)O
[1]
  Activity: Active
[2]
  Activity: inactive
[3]
  inhibition: Active
[4]
  Activity: Active
[5]
  inhibition: Active
[6]
  inhibition: Active
[7]
  inhibition: Active
